Assay results: US12441717B2, “Crystal form of polycyclic anaplastic lymphoma kinase inhibitor” (SHANDONG XUANZHU PHARMA CO., LTD., priority 2020, dated 2025)

Tests used:
Format in all cases: physicochemical
[1] = Moisture absorbability test (Chinese Pharmacopoeia 2015, General Principle 9103)
Description: A Test sample was taken and determined according to Chinese Pharmacopoeia, 2015 edition, vol. four, General Principle 9103, Guiding Principles for Drug Moisture Absorbability Test.

[2] = Solubility in buffered salt solutions of different pH (HPLC external standard)
Description: The solubility (mg/mL) of crystal forms A and B and the amorphous form of the compound of formula (1) under different pH conditions were as shown in Table 1.

[3] = Stability study (high temperature, high humidity, light): properties, related substances, moisture, XRD
Experimental: 2.1 Study Conditions for Crystal Form B of the Compound of Formula (1): • Placed at 105° C. for 5 days, left open, and sampled and tested on days 1 and 5; • placed at 60° C. for 10 days, left open, and sampled and tested on days 5 and 10; • placed under 25° C. RH 92.5% conditions for 10 days, left open, and sampled and tested on days 5 and 10; • under light conditions, using open and closed conditions (polyethylene bag+composite film bag), and sampling and testing when illumination requirements were met; and • placed under 40° C. RH 75% conditions for 1 month, left open, and sampled and tested on day 10 and after 1 month.
2.2 Study Conditions for Crystal Form a of the Compound of Formula (1): • Placed at 105° C. for 5 days, left open, and sampled and tested on days 1 and 5; • placed at 60° C. for 10 days, left open, and sampled and tested on days 5 and 10; • placed under 25° C. RH 92.5% conditions for 10 days, left open, and sampled and tested on days 5 and 10; • under light conditions, left open, and sampled and tested when illumination requirements were met; and • placed under 40° C. RH 75% conditions for 10 days, left open, and sampled and tested on days 5 and 10.
2.3 Study Conditions for the Amorphous Form of the Compound of Formula (1): • Placed at 60° C. for 10 days, left open, and sampled and tested on day 10; placed under 25° C. RH 92.5% conditions for 10 days, left open, and sampled and tested on day 10; and • under light conditions, using open and closed conditions (polyethylene bag+composite film bag), and sampling and testing when illumination requirements were met.
Illumination requirements: ICH Q1B Stability Test: Photostability Testing of New Drug Substances and formulation.
Determination of related substances: Determination by high performance liquid chromatography in accordance with “Chinese Pharmacopoeia”, 2015 edition, Vol. four, General Principle 0512.
Moisture determination: Determination according to “Chinese Pharmacopoeia”, 2015 edition, vol. four, General Principle 0832, Moisture Determination Method, First Method (Fischer's method), 2 Coulometric Titration Method.
XRD determination: Determination according to “Chinese Pharmacopoeia”, 2015 edition, vol. four, General Principle 0451 X-ray Diffraction Method—Second Method, Powder X-ray Diffraction Method.

[4] = Fluidity after universal pulverization (angle of repose, Carr's index, electrostatic phenomenon)
Experimental: The amorphous form and crystal forms A and B of the compound of formula (1) were treated by universal pulverization.
The fluidity of the crystal form could be characterized by the angle of repose and the Carr's index. It was generally believed that the smaller the angle of repose and the Carr's index, the better the fluidity.

[5] = Day 10, at 25° C. RH 92.5%, open
[6] = Light - closed, ICH Q1B illumination
[7] = Light - open, ICH Q1B illumination

Question: With `Cc1cc(Nc2ncc(Cl)c(Nc3ccccc3S(=O)(=O)C(C)C)n2)c2c(c1C1CCNCC1)OCCO2` [Amorphous form, 5-chloro-N^4-(2-(isopropylsulfonyl)phenyl)-N^2-(7-methyl-8-(piperidin-4-yl)-2,3-dihydrobenzo[b][1,4]dioxin-5-yl)pyrimidine-2,4-diamine] as the compound, how does the “Hygroscopic weight gain (%)” value [1] read?
Answer: Its value is 2.8%.

Question: And the Moisture absorbability results ([1]; wrapped cells end with 'absorbability')?
Answer: Its Moisture absorbability results is “Having moisture”.

Question: What about the Solubility ([2]; buffered salt solution pH 1.0, shaken at 25° C. for 24 h) of the same compound?
Answer: Its Solubility is 11200 µg/mL.

Question: And the Solubility ([2]; buffered salt solution pH 4.5, shaken at 25° C. for 24 h)?
Answer: The Solubility was 17 µg/mL.

Question: What about the Solubility ([2]; buffered salt solution pH 6.8, shaken at 25° C. for 24 h) of the same compound?
Answer: Its Solubility is 10 µg/mL.

Question: What about the Solubility ([2]; buffered salt solution pH 7.4, shaken at 25° C. for 24 h) of the same compound?
Answer: The Solubility was 8.7 µg/mL.

Question: What about the Properties ([3]; Day 0) of the same compound?
Answer: Its Properties is “Off-white powder”.

Question: And the Moisture % ([3]; Day 0, coulometric Fischer titration)?
Answer: Its Moisture % is 0.92%.

Question: And the Overall related % ([3]; Day 0, related substances by HPLC)?
Answer: Its Overall related % is 0.84%.

Question: And the Moisture % [3, 5]?
Answer: Its Moisture % is 6.9%.

Question: What about the Overall related % [3, 5] of the same compound?
Answer: The Overall related % was 0.90%.

Question: And the Properties [3, 5]?
Answer: The Properties was “Off-white powder”.

Question: What about the XRD ([3]; Day 10, at 25° C. RH 92.5%, open, pattern compared with day 0 (wrapped cell reads 'same as day 0')) of the same compound?
Answer: Its XRD is “Same as day 0”.

Question: And the Moisture % ([3]; Day 10, at 60° C., open)?
Answer: Its Moisture % is 0.69%.

Question: And the Overall related % ([3]; Day 10, at 60° C., open)?
Answer: Its Overall related % is 1.78%.

Question: And the Properties ([3]; Day 10, at 60° C., open)?
Answer: Its Properties is “Light yellow powder”.

Question: And the XRD ([3]; Day 10, at 60° C., open, pattern compared with day 0 (wrapped cell reads 'same as day 0'))?
Answer: The XRD was “Same as day 0”.

Question: And the Properties ([3]; Light - closed (polyethylene bag+composite film bag), ICH Q1B illumination)?
Answer: Its Properties is “Off-white powder”.

Question: What about the Moisture % [3, 6] of the same compound?
Answer: The Moisture % was 0.62%.

Question: And the Overall related % [3, 6]?
Answer: The Overall related % was 0.88%.

Question: What about the XRD ([3]; Light - closed, pattern compared with day 0 (wrapped cell reads 'same as day 0')) of the same compound?
Answer: The XRD was “Same as day 0”.

Question: And the Moisture % [3, 7]?
Answer: Its Moisture % is 2.3%.

Question: What about the Overall related % [3, 7] of the same compound?
Answer: Its Overall related % is 10.19%.

Question: What about the Properties [3, 7] of the same compound?
Answer: The Properties was “Light yellow powder”.

Question: And the XRD ([3]; Light - open, pattern compared with day 0)?
Answer: The XRD was “Same as day 0”.

Question: And the “Stability under high temperature, high humidity and light conditions (conclusion)” value ([3]; overall conclusion of the stability study)?
Answer: The value was “unstable”.

Question: And the “Electrostatic phenomenon after pulverization” value ([4]; after pulverization)?
Answer: Its value is “serious electrostatic phenomenon”.

Question: And the Angle of repose ([4]; after universal pulverization)?
Answer: The Angle of repose was 50.6 °.
